Paper PMC7473772 (eLife, 2020)
Several values for one entry are separate records, joined by “and”; a condition that tells them apart may be missing. Equal entries are not always repeated. Where two headings read alike, the source gives them in different places.

Key:
tbaqp2 null (AQP2-KO) = experiment: Drug sensitivity assay (resazurin); type: cell-based; details: Trypanosoma brucei, read-out: EC50 AQP2-KO AVG, AQP2-KO / tbaqp2 null; 48 h drug + 24 h resazurin
TbAQP2^I110W = TbAQP2^I110W (Trypanosoma brucei brucei, UniProt Q6ZXT3, I110W); experiment: [3H]-pentamidine transport; type: cell-based; details: 30 nM [3H]-pentamidine
Chain of TbAQP2^I110W (Q6ZXT3 whole entry I110W): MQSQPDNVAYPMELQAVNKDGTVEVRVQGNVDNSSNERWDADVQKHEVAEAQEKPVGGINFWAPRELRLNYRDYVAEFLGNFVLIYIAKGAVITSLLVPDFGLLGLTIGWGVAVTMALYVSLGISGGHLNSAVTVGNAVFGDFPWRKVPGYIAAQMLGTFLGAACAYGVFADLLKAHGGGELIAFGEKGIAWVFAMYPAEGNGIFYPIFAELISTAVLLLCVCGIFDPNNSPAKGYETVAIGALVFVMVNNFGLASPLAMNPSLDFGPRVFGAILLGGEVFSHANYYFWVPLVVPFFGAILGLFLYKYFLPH

TbAQP2 L118W = TbAQP2 L118W (Trypanosoma brucei brucei, UniProt Q6ZXT3, L118W); experiment: [3H]-pentamidine transport; type: cell-based; details: AQP2 mutant L118W; n=6
Chain of TbAQP2 L118W (Q6ZXT3 whole entry L118W): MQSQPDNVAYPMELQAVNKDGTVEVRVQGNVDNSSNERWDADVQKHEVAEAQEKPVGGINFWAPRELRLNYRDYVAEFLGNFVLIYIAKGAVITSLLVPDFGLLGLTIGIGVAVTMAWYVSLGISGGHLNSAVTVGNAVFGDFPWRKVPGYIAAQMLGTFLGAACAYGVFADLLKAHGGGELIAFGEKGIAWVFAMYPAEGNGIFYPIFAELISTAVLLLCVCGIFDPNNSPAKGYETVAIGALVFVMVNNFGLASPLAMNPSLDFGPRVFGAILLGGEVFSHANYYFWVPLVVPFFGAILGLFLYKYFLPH

[1] = test system: tbaqp2/tbaqp3 null cells expressing TbAQP2^I110W; type: cell-based, Trypanosoma brucei brucei
tbaqp1-2-3 null cells = experiment: Drug sensitivity assay (resazurin), pentamidine and SHAM; type: cell-based, Trypanosoma brucei brucei; details: KO AQP1-3
CRK12 RNAi cells = experiment: [3H]-pentamidine transport after CRK12 RNAi induction (endocytosis defect); type: cell-based, Trypanosoma brucei
3×HA tagged TbAQP2 = molecular target: T1, 3×HA tagged TbAQP2 (Trypanosoma brucei brucei, UniProt Q6ZXT3); type: cell-based
T1 construct: expressed in transfected cells; host or cells: T. brucei 2T1 bloodstream forms, tetracycline-induced
T1 sequence (Q6ZXT3 whole entry): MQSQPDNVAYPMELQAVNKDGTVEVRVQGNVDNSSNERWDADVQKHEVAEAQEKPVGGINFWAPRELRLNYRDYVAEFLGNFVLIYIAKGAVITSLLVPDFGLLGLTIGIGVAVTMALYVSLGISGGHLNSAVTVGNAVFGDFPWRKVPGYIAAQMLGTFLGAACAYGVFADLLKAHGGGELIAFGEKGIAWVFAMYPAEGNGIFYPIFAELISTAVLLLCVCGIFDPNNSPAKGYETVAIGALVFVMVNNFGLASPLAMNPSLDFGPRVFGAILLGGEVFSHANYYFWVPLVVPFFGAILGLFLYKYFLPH

[2] = test system: tbaqp2/tbaqp3 null cells expressing TbAQP2^L264R; type: cell-based, Trypanosoma brucei brucei
[3] = test system: tbaqp2/tbaqp3 null cells expressing TbAQP2^L258Y; type: cell-based, Trypanosoma brucei brucei
HAPT = details: cited from earlier work
TbAQP2 L84W = TbAQP2 L84W (Trypanosoma brucei brucei, UniProt Q6ZXT3, L84W); experiment: [3H]-pentamidine transport; type: cell-based; details: AQP2 mutant L84W; n=5
Chain of TbAQP2 L84W (Q6ZXT3 whole entry L84W): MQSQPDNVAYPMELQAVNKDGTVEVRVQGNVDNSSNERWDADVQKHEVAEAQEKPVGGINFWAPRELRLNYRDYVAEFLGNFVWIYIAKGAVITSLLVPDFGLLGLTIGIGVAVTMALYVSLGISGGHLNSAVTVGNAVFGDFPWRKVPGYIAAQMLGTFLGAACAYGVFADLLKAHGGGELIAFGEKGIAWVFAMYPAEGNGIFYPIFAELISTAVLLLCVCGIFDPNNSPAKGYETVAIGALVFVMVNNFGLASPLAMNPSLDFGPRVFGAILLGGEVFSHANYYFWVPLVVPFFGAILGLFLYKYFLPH

[4] = test system: tbaqp2/tbaqp3 null cells expressing TbAQP2^I190T/W192G; type: cell-based, Trypanosoma brucei brucei
TbAQP2WT [5] = molecular target: TbAQP2WT (Trypanosoma brucei brucei, UniProt Q6ZXT3); experiment: cell-based
Chain of TbAQP2WT (Trypanosoma brucei brucei, UniProt Q6ZXT3) (Q6ZXT3 whole entry): as the sequence (Q6ZXT3 whole entry) above

TbAQP2WT [6] = experiment: cell-based; set-up: species or system Trypanosoma brucei brucei
tbaqp2/tbaqp3 null cells [7] = experiment: [3H]-pentamidine transport; type: cell-based, Trypanosoma brucei brucei
tbaqp2/tbaqp3 null cells [8] = experiment: microbe, parasite or virus in culture; type: cell-based, Trypanosoma brucei brucei
T. b. brucei 2T1 = experiment: Drug sensitivity assay (resazurin); type: cell-based; details: Trypanosoma brucei, 48 h drug + 24 h resazurin, read-out: EC50 control 2T1 AVG
Outline: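 Bloodstream-form T. b. brucei 2T1 lines, including tbaqp2/tbaqp3 null, tbaqp1-2-3 null and CRK12 RNAi (1 µg/ml tetracycline), were grown in HMI-11 at 37°C/5% CO2. Compounds were given as doubling dilutions from 100 µM for 48 hr, then resazurin was added for 24 hr.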

[9] = test system: tbaqp2/tbaqp3 null cells expressing TbAQP2 L84W; experiment: microbe, parasite or virus in culture; type: cell-based, Trypanosoma brucei brucei
[10] = test system: tbaqp2/tbaqp3 null cells expressing TbAQP3^W102I/R256L; type: cell-based, Trypanosoma brucei brucei
TbAQP2 L84M = TbAQP2 L84M (Trypanosoma brucei brucei, UniProt Q6ZXT3, L84M); experiment: [3H]-pentamidine transport; type: cell-based; details: AQP2 mutant L84M; n=3
Chain of TbAQP2 L84M (Q6ZXT3 whole entry L84M): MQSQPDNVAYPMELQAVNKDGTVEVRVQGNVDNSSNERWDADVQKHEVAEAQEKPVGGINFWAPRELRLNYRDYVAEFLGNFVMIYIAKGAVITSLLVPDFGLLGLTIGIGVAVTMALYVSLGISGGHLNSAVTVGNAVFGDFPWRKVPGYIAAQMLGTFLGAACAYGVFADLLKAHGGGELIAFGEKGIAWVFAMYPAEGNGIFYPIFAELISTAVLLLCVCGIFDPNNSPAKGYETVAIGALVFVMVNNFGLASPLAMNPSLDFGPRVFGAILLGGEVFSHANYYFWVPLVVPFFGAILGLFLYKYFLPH

[11] = test system: tbaqp2/tbaqp3 null cells expressing TbAQP2 L118W; experiment: microbe, parasite or virus in culture; type: cell-based, Trypanosoma brucei brucei
[12] = read-out: Alamar blue EC50, single repeats
[13] = Trypanosoma brucei, read-out: Alamar blue EC50, single repeats
[14] = AQP2/3-dKO, 30 nM [3H]-pentamidine, 1 mM adenosine
[15] = Fig. 3A, exp AQP016-AQP023, AQP2/3-dKO
[16] = Fig. 3A, exp AQP038-AQP041, AQP2/3-dKO
[17] = dKO control of the AQP3 mutant series, over 30 minutes
[18] = Trypanosoma brucei, read-out: Alamar blue EC50, MEAN
[19] = Trypanosoma brucei, read-out: EC50 AVG

In the case of `N=C(N)c1ccc(OCCCCCOc2ccc(C(=N)N)cc2)cc1` [Pentamidine], the EC50 (tbaqp2 null (AQP2-KO)) is reported as 130 nM, the Pentamidine transport rate (TbAQP2^I110W) is reported as 0.000216 pmol/10E7 cells/s and the “Pentamidine transport rate AVG” value (TbAQP2 L118W) is reported as 0.0006283 pmol/10E7 cells/s. The “EC50, percent of AQP2/3 null EC50” value [1] was 122.13%, the EC50 (tbaqp1-2-3 null cells; [12]) was 75.4 nM and 63.9 nM and the EC50 (tbaqp1-2-3 null cells; Trypanosoma brucei, 3 repeats, read-out: Alamar blue EC50, MEAN) was 69.3 nM. The EC50 (tbaqp1-2-3 null cells; [13]) was 68.7 nM, the “pentamidine uptake rate, CRK+tet, AVERAGE” value (CRK12 RNAi cells; CRK12 RNAi induced (+tet), 4 experiments) was 0.00587 pmol/1E7 cells/s-1 and the “pentamidine uptake rate, CRK+tet” value (CRK12 RNAi cells; CRK12 RNAi induced (+tet), single experiments) was 0.00804 pmol/1E7 cells/s-1 and 0.004193 pmol/1E7 cells/s-1 and 0.006636 pmol/1E7 cells/s-1 and 0.004619 pmol/1E7 cells/s-1. For the same compound, the “pentamidine uptake rate, CRK-tet, AVERAGE” value (CRK12 RNAi cells; CRK12 RNAi not induced (-tet), 4 experiments) was 0.00656 pmol/1E7 cells/s-1, the “Effect on TbAQP2 turnover rate” value (3×HA tagged TbAQP2) was “identical turnover rates” and the “EC50, percent of AQP2/3 null EC50” value [2] was 126.58%. For the same compound, the “EC50, percent of AQP2/3 null EC50” value [3] was 0.50%, the Vmax (HAPT) was 0.0044 ± 0.0004 pmol(10^7 cells)^−1 s^−1 and the “Vmax for HAPT-mediated pentamidine uptake” value (HAPT) was 9.5 × 10^5 molecules/cell/h and 8.5 × 10^6 molecules/cell/h. The “Pentamidine transport rate AVG” value (TbAQP2 L84W) was 0.0006628 pmol/10E7 cells/s, the “EC50 as percent of AQP2/3 null EC50, MEAN” value (from here on “EC50 as percent … MEAN”) [4] was 99.52% and the “EC50 as percent of AQP2/3 null EC50, single repeats” value [4] was 131.67% and 89.434% and 77.4635%. The EC50 (TbAQP2WT [5]) was 41 ± 17 nM, the “Pentamidine transport rate AVG” value (TbAQP2WT [5]) was 0.02122 pmol/10E7 cells/s and the “Pentamidine transport rate as percent of +AQP2-WT, AVG” value (TbAQP2WT [5]) was 100.0%. The “Pentamidine transport rate as percent of +AQP2-WT, single experiments” value (TbAQP2WT [5]) was 100.0%, the “Pentamidine transport rate, AVG” value (TbAQP2WT [5]) was 0.02122 pmol/10E7 cells/s and 0.03781 pmol/10E7 cells/s and the “Pentamidine transport rate, percent of +AQP2-WT, AVG” value (TbAQP2WT [5]) was 100.00% of +AQP2-WT. The “Transport rate AVG” value (TbAQP2WT [5]) was 100, the activity at 0.03 µM (TbAQP2WT [5]; read-out: Pentamidine transport rate, percent of +AQP2-WT) was 100% and the Km (TbAQP2WT [6]; TbAQP2-WT cells, read-out: Km of low affinity component (LAPT1)) was 82.7 ± 17.5 µM. The “[3H]-pentamidine taken up by the low affinity component” value (TbAQP2WT [6]; highly similar for TbAQP2^I190T and TbAQP2WT cell lines) was “approximately 0.0005 pmol(10^7 cells)^−1 s^−1”, the Pentamidine transport rate (tbaqp2/tbaqp3 null cells [7]; [14]) was 0.00022 pmol/10E7 cells/s and 0.000123 pmol/10E7 cells/s and the “Pentamidine transport rate, percent of +AQP2-WT” value (tbaqp2/tbaqp3 null cells [7]; [14]) was 0.383% and 1.05%. The “Pentamidine transport rate AVG” value (tbaqp2/tbaqp3 null cells [7]; AQP2/3-dKO, n=16) was 2.76E-04 pmol/10E7 cells/s, the “Pentamidine transport rate, percent of +AQP2-WT, AVG” value (tbaqp2/tbaqp3 null cells [7]; AQP2/3-dKO, n=16) was 1.08% of +AQP2-WT and the “Pentamidine transport rate, AVG” value (tbaqp2/tbaqp3 null cells [7]; Fig. 3A, exp AQP001-AQP023, AQP2/3-dKO) was 2.76E-04 pmol/10E7 cells/s. For the same compound, the “Pentamidine transport rate as percent of +AQP2-WT, AVG” value (tbaqp2/tbaqp3 null cells [7]; [15]) was 1.32%, the “Pentamidine transport rate as percent of +AQP2-WT, single experiments” value (tbaqp2/tbaqp3 null cells [7]; [15]) was 1.4% and 1.5% and 1.0% and the “Pentamidine transport rate as percent of +AQP2-WT, AVG” value (tbaqp2/tbaqp3 null cells [7]; [16]) was 0.383%. For the same compound, the “Pentamidine transport rate, AVG” value (tbaqp2/tbaqp3 null cells [7]; [16]) was 0.000123 pmol/10E7 cells/s, the “Pentamidine transport rate, single experiments” value (tbaqp2/tbaqp3 null cells [7]; [16]) was 0.0001045 pmol/10E7 cells/s and 0.0001529 pmol/10E7 cells/s and 0.0001563 pmol/10E7 cells/s and 8.02E-05 pmol/10E7 cells/s and the Pentamidine transport rate (tbaqp2/tbaqp3 null cells [7]; [17]) was 1.22E-04 pmol/10E7 cells/s. For the same compound, the “Pentamidine transport rate, percent of TbAQP2WT control” value (tbaqp2/tbaqp3 null cells [7]; [17]) was 0.57%, the “Transport rate AVG” value (tbaqp2/tbaqp3 null cells [7]; strain AQKO, unit not given, +AQP2-WT = 100) was 1.05 and the “EC50, percent of AQP2/3 null EC50” value (tbaqp2/tbaqp3 null cells [8]) was 100.00%. For the same compound, the “EC50 as percent … MEAN” value (tbaqp2/tbaqp3 null cells [8]) was 100.00%, the “EC50 as percent of AQP2/3 null EC50, single repeats” value (tbaqp2/tbaqp3 null cells [8]) was 100% and the EC50 (tbaqp2/tbaqp3 null cells [8]; [18]) was 66.3 nM. The EC50 (tbaqp2/tbaqp3 null cells [8]; [13]) was 69.3 nM, the EC50 (tbaqp2/tbaqp3 null cells [8]; read-out: Alamar blue EC50, MEAN) was 72.3 nM and the EC50 (tbaqp2/tbaqp3 null cells [8]; [12]) was 52.1 nM and 77.6 nM and 77.5 nM and 68.9 nM and 70.5 nM. For the same compound, the EC50 (T. b. brucei 2T1) was 15 nM, the EC50 [9, 18] was 32 nM and the EC50 [9, 13] was 34.5 nM. For the same compound, the EC50 [9, 19] was 32 nM, the EC50 [9, 12] was 33.6 nM and 27.8 nM and the “EC50 as percent … MEAN” value [10] was 83.83%. The “Pentamidine transport rate AVG” value (TbAQP2 L84M) was 0.003585 pmol/10E7 cells/s, the EC50 [11, 18] was 46.3 nM and the EC50 [11, 13] was 52.4 nM. For the same compound, the EC50 [11, 19] was 46.3 nM and the EC50 [11, 12] was 40.8 nM and 45.7 nM.
